One compound from patent US11179384B2, “Treatment of nonalcoholic fatty liver disease” (TAKEDA GMBH, priority 2016, dated 2021) can be followed below.

Structures are written as SMILES.

The test system of experiment [1] is alfa smooth muscle actin (αSMA) gene expression in human stellate cells (HSCs). The experiment can be described thus: Anti-fibrotic activity in human hepatic stellate cells (TGF-β-induced αSMA gene expression). In kind it is cell-based. The following applies: primary human HSCs; 0.0001-1 μM, TGF-β 0.2 ng/mL, forskolin 1 μM, 24 hours. The protocol:
The effect on human stellate cells (HSCs) activation was evaluated by gene expression of alfa smooth muscle actin (αSMA) induced by TGF-β.
Primary HSCs (ScienCell) were suspended in serum-free SteCM medium (ScienCell) and seeded on Poly-D-Lysine-coated 96 well plates as 2.5×10^3 cells/100 uL/well. Six hours after the seeding, HSCs were treated with Compound A (0, 0.0001, 0.001, 0.01, 0.1, and 1 μM), TGF-β (0.2 ng/mL) and forskolin (1 μM) for 24 hours. After the 24-hours incubation, total RNA was extracted from cell lysate using RNeasy 96 Kit (QIAGEN 74182). cDNA was amplified using High-Capacity cDNA Reverse Transcription Kit (ABI 4368813), and target gene mRNA was measured using Taqman PCR. The target gene expression level was normalized by GAPDH. The experiment was repeated 5 times.

The test system of a further experiment is ob/ob mice. The experiment can be described thus: Insulin tolerance test (insulin sensitivity) in ob/ob mice. The following applies: 29 days. It counts as in vivo. The protocol: Male 5 weeks old ob/ob mice (B6.Cg-Lep^ob/J, genotype: Lep^ob/Leb^ob) and age-matched male lean mice (B6.Cg-Lep^ob/J, genotype: Lep^ob/+ * or Leb^+/+) were purchased from Charles River Laboratories, Japan Inc. All mice were fed with a normal chow (CE-2, CLEA Japan) and allowed free access to tap water. The animals were housed in a room with controlled temperature (23±1° C.), humidity (55±10%) and lightning (lights from 07:00 to 19:00). All experiments were approved by the Institutional Animal Care and Use Committee of Shonan Research Center, Takeda Pharmaceutical Company ltd (Japan).
All mice were housed individually in animal cages and used for the study at 7 weeks of age after 2 weeks of acclimation period. Blood samples were collected from the tail vein. Heparin and 2%-EDTA were used to inhibit the coagulation of the blood. Plasma was obtained by centrifugation. Plasma levels of glucose were measured using the automatic analyzer 7180 (Hitachi, Japan). Vehicle (0.5 w/v % methylcellulose, 10 ml/kg) and Compound A (3 and 10 mg/kg suspended in 0.5% methylcellulose solution) were orally administered once daily. After 28 days of administration, the insulin tolerance test (ITT) was performed. Mice were fasted for 6 h and then intraperitoneally administered with insulin (Novolin R, NovoNordisk) at a dose of 0.5 unit/5 ml/kg. Blood samples were collected from tail vein before and 15, 30, 60 and 120 min after the insulin administration. Plasma glucose (PG) level and ITT were measured using the method described above. […] AUC0-120 min of plasma glucose level was calculated using the following formula; [{(0 min PG)+(15 min PG)}×15+{(15 min PG)+(30 min PG)}×15+{(30 min PG)+(60 min PG)}×30+{(60 min PG)+[…]}×60]/2.
Data are expressed as mean and standard deviation (n=8 for ob/ob mice and n=5 for lean mice). The dose response trends of Compound A were assessed by one-tailed Williams' test or Shirley-Williams test. […] For evaluation of the effects of pioglitazone, statistical differences between vehicle and pioglitazone treated groups were analyzed with Student's t-test or Aspin-Welsh test. […]

Experiment [2] deals with TNFα gene expression in THP-1 cells. Briefly: Anti-inflammatory effect in THP-1 cells (LPS-induced TNFα gene expression). In kind it is cell-based, human. The following applies: PMA-treated THP-1 cells; 0.0001-1 μM, LPS 1 ng/mL, forskolin 0.1 μM, 5 hours. The protocol:
Anti-inflammatory effect of Compound A was evaluated by gene expression of TNFα induced by LPS in THP-1 cells, a human monocytic cell line.
THP-1 cells (ATCC) were suspended in RPMI medium containing 10% FBS and 50 ng/mL PMA (2.5×10^5 cells/mL) and seeded on 96 well plates. Fourty-eight hours after the seeding, the medium was exchanged to serum-free RPMI medium. Three hours after the exchange, Compound A (0, 0.0001, 0.001, 0.01, 0.1 and 1 μM), LPS (1 ng/mL), and forskolin (0.1 μM) were added to the THP-1 cells. After the 5-hours incubation, total RNA was extracted from cell lysate using RNeasy 96 Kit (QIAGEN 74182). cDNA was amplified using High-Capacity cDNA Reverse Transcription Kit (ABI 4368813), and target gene mRNA was measured using Taqman PCR. The target gene expression level was normalized by GAPDH. The experiment was repeated 5 times.

The test system of experiment [3] is tissue inhibitor of metalloproteases-1 (TIMP-1) gene expression. The experiment can be described thus: Hepatic gene expression in prophylactic NASH mouse model, TIMP-1 (Taqman PCR). In kind it is in vivo. The following applies: LDLR-KO mice on mCDAA diet; 1, 3 and 10 mg/kg p.o. QD for 7 weeks; liver mRNA. The protocol:
Homozygous low-density lipoprotein receptor knockout (LDLR-KO) mice were fed with chow or modified choline deficient, L-amino acid-defined (mCDAA) diet (A08111307, Research Diets, USA). After 1 week under chow or mCDAA diet, the mice were orally dosed with Compound A (1, 3 and 10 mg/5 ml/kg, QD, n=10; suspension in 0.5 w/v % methylcellulose suspension) for 7 weeks.
In addition prophylactic effects of Compound A on hepatic gene expression were evaluated. After total RNA was extracted from liver, cDNA was amplified using High-Capacity cDNA Reverse Transcription Kit (ABI 4368813), and target gene mRNA was measured using Taqman PCR. The target gene expression level was normalized by GAPDH.

For the next experiment, the system named is Homozygous LDLR-KO mice. Briefly: Therapeutic effects in a mouse model of NASH (LDLR-KO mice, mCDAA diet, after fibrosis formation). In kind it is in vivo. The following applies: 6 weeks mCDAA diet then 4 and 8 mg/kg p.o. QD for 10 weeks (therapeutic). The method, then: To evaluate therapeutic potential of Compound A, effects of Compound A were additionally examined after hepatic fibrosis formation. Homozygous LDLR-KO mice were fed with chow or mCDAA diet (A08111307, Research Diets, USA). After 6 week under chow or mCDAA diet, the mice were orally dosed with Compound A (4, and 8 mg/5 mL/kg, QD, n=12; suspension in 0.5 w/v % methylcellulose solution) for 10 weeks.

Take `CCOc1cc2c(cc1OC)C(c1ccc(=O)n(C)c1)=N[C@@H]1CC[C@@H](O)C[C@H]21` [Compound A, 5-((2R,4aR,10bR)-9-Ethoxy-2-hydroxy-8-methoxy-1,2,3,4,4a,10b-hexahydro-phenanthridin-6-yl)-1-methyl-1H-pyridin-2-one]: in experiment [1], the “TGF-β-induced αSMA gene expression in HSCs” value is “dose-dependently suppressed”. Further, the “insulin-stimulated plasma glucose (PG) reduction at 60 min” value with ob/ob mice (10 mg/kg/day p.o., ITT insulin 0.5 unit/kg i.p., vs vehicle) was “significantly enhanced”. Besides, the “AUC of PG level (AUC0-120 min)” value with ob/ob mice (3 and 10 mg/kg/day p.o., ITT, statistical significance at 10 mg/kg/day) is recorded as “dose-dependently decreased”. The “declines in plasma glucose level at 60 min from the zero time value” in the experiment with ob/ob mice (3 and 10 mg/kg/day p.o., ITT, vs vehicle) is given as “significantly greater”. Further, in experiment [2], the “LPS-induced TNF-α gene expression in THP-1 cells” value is given as “dose-dependently suppressed”. The “hepatic TIMP-1 gene expression (normalized by GAPDH)” value in experiment [3] is reported as “dose-dependent reduction”. For the same compound, in the experiment with Homozygous LDLR-KO mice, the “hepatic TG content” value was “significantly reduced from the initial value” and the hepatic fibrosis area result is given as “reduction”.
